Reference: article PMC6616128, “Liquiritin, as a Natural Inhibitor of AKR1C1, Could Interfere With the Progesterone Metabolism” (Frontiers in Physiology, 2019)
Like-named read-outs stand apart in the source and are kept apart here.

Biological target: T1, AKR1C1 (Homo sapiens, UniProt Q04828)
T1 sequence (Q04828 1-323): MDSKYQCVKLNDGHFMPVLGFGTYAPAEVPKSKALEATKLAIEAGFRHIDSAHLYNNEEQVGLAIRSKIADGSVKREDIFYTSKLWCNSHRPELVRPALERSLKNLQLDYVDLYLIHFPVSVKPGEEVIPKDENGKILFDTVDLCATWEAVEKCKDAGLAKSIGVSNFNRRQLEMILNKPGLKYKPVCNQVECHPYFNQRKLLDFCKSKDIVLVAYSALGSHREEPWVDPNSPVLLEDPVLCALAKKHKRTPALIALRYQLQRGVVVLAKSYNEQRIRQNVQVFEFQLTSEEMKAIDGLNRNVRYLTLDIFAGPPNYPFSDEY
Experiment: Enzyme activity (NADPH) assay with s-tetralol, recombinant GST-AKR1C1;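 note: GST-fused AKR1C1 expressed in E. coli and purified by glutathione affinity, control wells received DMSO instead of compound, duplicate samples from a single experiment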
Assay type: biochemical
Set-up: made in house; host or cells: Escherichia coli JM109
Conditions: for enzyme activity: CON 192.295568; for remaining activity at 2 µM: read-out: ratio (activity relative to CON)

[1] = 2 μM compound, Supplementary Table 1, CON 0.0122
[2] = 2 μM compound, Supplementary Table 1
[3] = 2 μM compound, Supplementary Table 1, CON = 1
[4] = 2 μM compound, Supplementary Table 1, read-out: % inhibition

Protocol: GST-tagged recombinant AKR1C isoforms expressed JM109 was grown in Luria-Bertani broth (100 μg⋅ml-1 ampicillin, pH = 7.0) at 37°C with orbital shaking at 220 rpm. When cells achieved an OD600 nm between 0.4 and 0.6, 0.3 mM final concentration of isopropyl β-D-1-thiogalactopyranoside (IPTG) was added to the cultures and incubated for an additional 12 h at 25°C. Cells were harvested by centrifugation at 8000 g for 10 min, and the cell pellets were stored at -80°C for storage. The pellets were resuspended in 1 × PBS, pH = 7.4 and lysed by ultrasonication at ice-cold temperature using an UH-03 union instrument. The purification of glutathione-S-transferase (GST)-fusion AKR1C1, AKR1C2, and AKR1C3 were then carried out using ÄKTA systems from GE Healthcare as described in Handbook. The recombinant proteins were eluted in 50 mM Tris–HCl (pH = 8.0) with 20 mM reduced glutathione, fresh preparedly. Protein concentrations were determined using the Bradford protein assay kit. All proteins were aliquoted and stored at -80°C containing 20% glycerol.
To screen for the indicated inhibitor, the assay mixture was added with additional DMSO or 2 μM compounds. […] The inhibition patterns were determined by fitting initial velocity and inhibitor concentration into inhibition models using Graphpad Prism 6.0. All inhibition data were obtained from single experiments, with samples conducted in duplicate.
Firstly, we overexpressed recombinant human AKR1C in E. coli in the form of a GST-fusion protein, and then purified it by affinity chromatography on glutathione-Sepharose.
To screen for the inhibitors of AKR1C1, we developed a readily accessible indirect NADPH generating-based assay that can be used for high-throughput inhibitors screening. […] Wells were included containing enzyme and no inhibitor or 2 μM inhibitor.

Row | Compound | slope [1] | enzyme activity [2] [nmol/min/mg] | remaining activity at 2 µM [3] [%] | inhibition at 2 µM [4] [%] | % inhibition [2] [%] | ratio (activity relative to CON) [3] | inhibition at 2 µM [%] | slope | remaining activity at 2 µM [%]
1 | COc1c2ccoc2cc2oc(=O)ccc12 [5-Methoxypsoralen] | 0.0121 | 190.1339 | 98.9 | 1.12 | – | – | – | – | –
2 | O=C(O[C@@H]1Cc2c(O)cc(O)cc2O[C@@H]1c1ccc(O)c(O)c1)c1cc(O)c(O)c(O)c1 [(−)-Epicatechin gallate] | 0.00702 | 110.6488 | – | – | 42.46 | 0.5754 | – | – | –
3 | O=C(O[C@@H]1Cc2c(O)cc(O)cc2O[C@@H]1c1cc(O)c(O)c(O)c1)c1cc(O)c(O)c(O)c1 [(−)-Epigallocatechin gallate] | 0.0121 | 191.3949 | 99.5 | 0.47 | – | – | – | – | –
4 | Oc1cc(O)c2c(c1)O[C@H](c1cc(O)c(O)c(O)c1)[C@H](O)C2 [(−)-Epigallocatechin] | 0.0131 | 206.076 | – | – | -7.17 | 1.0717 | – | – | –
5 | C[C@@H]1O[C@@H](O[C@@H]2[C@@H](O)[C@H](OCCc3ccc(O)c(O)c3)O[C@H](CO)[C@H]2OC(=O)/C=C/c2ccc(O)c(O)c2)[C@H](O)[C@H](O)[C@H]1O [Acteoside] | 0.0123 | 194.5022 | 101 | -1.15 | – | – | – | – | –
6 | C[C@]12C[C@@H](O)[C@@H]3C[C@@]1(O[C@@H]1O[C@H](CO)[C@@H](O)[C@H](O)[C@H]1O)[C@@]3(COC(=O)c1ccccc1)C(=O)O2 [Albiflorin] | 0.0129 | 202.8786 | – | – | -5.5 | 1.055 | – | – | –
7 | CC(C)(C)[C@]1(O)CC2OC(=O)CC23C(=O)OC2OC(=O)[C@H](O)C231 (some centres unmarked) [Bilobalide] | – | 120.151 | – | – | – | – | 37.5 | 0.007623 | 62.5
8 | O=C(/C=C/c1ccc(O)cc1)CC(=O)/C=C/c1ccc(O)cc1 [Bisdemethoxycurcumin] | 0.0114 | 180.2715 | 93.8 | 6.25 | – | – | – | – | –
9 | C=C1C(=O)O[C@@H]2/C=C(\C)CC/C=C(\C)CC[C@@H]12 [Costundide] | 0.007263 | 114.4767 | – | – | 40.47 | 0.5953 | – | – | –
10 | O=c1c(-c2ccc(O)cc2)coc2cc(O[C@@H]3O[C@H](CO)[C@@H](O)[C@H](O)[C@H]3O)ccc12 [Daidzin] | 0.013 | 204.9952 | 107 | -6.6 | – | – | – | – | –
11 | C[C@@H]1CC[C@@]2(OC1)O[C@H]1C[C@H]3[C@@H]4CC=C5C[C@@H](O[C@@H]6O[C@H](CO)[C@@H](O[C@@H]7O[C@@H](C)[C@H](O)[C@@H](O)[C@H]7O)[C@H](O)[C@H]6O[C@@H]6O[C@@H](C)[C@H](O)[C@@H](O)[C@H]6O)CC[C@]5(C)[C@H]4CC[C@]3(C)[C@H]1[C@@H]2C [Dioscin] | 0.0134 | 211.8854 | 110 | -10.2 | – | – | – | – | –
12 | Oc1cc(O)c2c(c1)O[C@H](c1cc(O)c(O)c(O)c1)[C@H](O)C2 [Epigallocatechin] | 0.0131 | 206.6164 | 107 | -7.45 | – | – | – | – | –
13 | COc1ccc2cc1Oc1ccc(cc1)C[C@H]1c3cc(c(OC)cc3CCN1C)Oc1c(O)c(OC)cc3c1[C@H](C2)N(C)CC3 [Fangchinoline] | 0.0139 | 219.4962 | 114 | -14.2 | – | – | – | – | –
14 | C[C@@H]1C(=O)O[C@H]2C[C@@]34[C@H]5C[C@@H](C(C)(C)C)[C@]36[C@@H](OC(=O)[C@@H]6O)O[C@@]4(C(=O)O5)[C@]21O [Ginkgolide A] | 0.008406 | 132.4903 | 68.9 | 31.1 | – | – | – | – | –
15 | CC(C)=CCC[C@](C)(O[C@@H]1O[C@H](CO)[C@@H](O)[C@H](O)[C@H]1O)[C@H]1CC[C@]2(C)[C@@H]1[C@H](O)C[C@@H]1[C@@]3(C)CC[C@H](O)C(C)(C)[C@@H]3CC[C@]12C [Ginsenoside CK] | 0.0123 | 193.3764 | – | – | -0.56 | 1.0056 | – | – | –
16 | CC(C)=CCOc1c2occc2cc2ccc(=O)oc12 [Imperatorin] | 0.0117 | 184.7298 | 96.1 | 3.93 | – | – | – | – | –
17 | COc1cc(-c2oc3cc(O)cc(O)c3c(=O)c2O)ccc1O [Isorhamnetin] | 0.0125 | 197.0241 | 102 | -2.46 | – | – | – | – | –
18 | COc1cc2c(cc1O)CC[n+]1cc3c(OC)c(OC)ccc3cc1-2.[Cl-] [Jatrorrhizine Hydrochloride] | 0.0127 | 200.7169 | – | – | -4.38 | 1.0438 | – | – | –

Further lines, with some results ahead:

Row | slope [1] | enzyme activity [2] [nmol/min/mg] | remaining activity at 2 µM [3] [%] | inhibition at 2 µM [4] [%] | Compound | % inhibition [2] [%] | ratio (activity relative to CON) [3] | inhibition at 2 µM [%] | slope | remaining activity at 2 µM [%]
19 | 0.00928 | 146.2707 | 76.1 | 23.9 | O=c1c(O)c(-c2ccccc2)oc2cc(O)cc(O)c12 [3,5,7-Trihydroxyflavone] | – | – | – | – | –
20 | 0.0129 | 203.0137 | 106 | -5.57 | COc1cc(C[C@H]2C(=O)OC[C@@H]2Cc2ccc(OC)c(OC)c2)ccc1O [Arctigenin] | – | – | – | – | –
21 | 0.007614 | 120.0159 | 62.4 | 37.6 | O=c1c(O[C@@H]2O[C@H](CO)[C@@H](O)[C@H](O)[C@H]2O)c(-c2ccc(O)cc2)oc2cc(O)cc(O)c12 [Astragalin] | – | – | – | – | –
22 | 0.009203 | 145.0548 | 75.4 | 24.6 | COc1cc2c(cc1CC=C(C)C)C(=O)C[C@@H](c1ccc(O)cc1)O2 [Bavachinin A] | – | – | – | – | –
23 | 0.0116 | 183.0185 | 95.2 | 4.82 | COc1ccc(-c2coc3cc(O)ccc3c2=O)cc1O [Calycosin] | – | – | – | – | –
24 | 0.006283 | 99.03 | 51.5 | 48.5 | COc1cc(/C=C/C(=O)CC(=O)/C=C/c2ccc(O)c(OC)c2)ccc1O [Curcumin] | – | – | – | – | –
25 | 0.007957 | 125.4199 | 65.2 | 34.8 | O=c1c(-c2ccc(O)cc2)coc2cc(O)ccc12 [Daidzein] | – | – | – | – | –
26 | 0.0128 | 201.0772 | – | – | COc1cc(O)c2c(c1)C(=O)c1cc(C)cc(O)c1C2=O [Emodin-3-methyl ether] | -4.57 | 1.0457 | – | – | –
27 | 0.0136 | 214.5874 | 112 | -11.6 | Oc1cc(O)c2c(c1)O[C@H](c1ccc(O)c(O)c1)[C@H](O)C2 [Epicatechin] | – | – | – | – | –
28 | 0.0129 | 203.1488 | 106 | -5.64 | O=c1c(-c2ccc(O)cc2)coc2cc(O[C@@H]3O[C@H](CO)[C@@H](O)[C@H](O)[C@H]3O)cc(O)c12 [Genistin] | – | – | – | – | –
29 | 0.0136 | 215.1279 | 112 | -11.9 | CC1(C)C=Cc2c(ccc3c2OC[C@@H](c2ccc(O)cc2O)C3)O1 [Glabridin] | – | – | – | – | –
30 | 0.0086 | 135.5526 | 70.5 | 29.5 | COc1cc2c(=O)c(-c3ccc(O)cc3)coc2cc1O [Glycitein] | – | – | – | – | –
31 | 0.00436 | 68.722 | – | – | COc1cc2c(=O)c(-c3ccc(O)cc3)coc2cc1O[C@@H]1O[C@H](CO)[C@@H](O)[C@H](O)[C@H]1O [Glycitin] | 64.26 | 0.3574 | – | – | –
32 | 0.0123 | 193.4665 | 101 | -0.61 | O=c1c(O[C@@H]2O[C@H](CO)[C@H](O)[C@H](O)[C@H]2O)c(-c2ccc(O)c(O)c2)oc2cc(O)cc(O)c12 [Hyperoside] | – | – | – | – | –
33 | 0.0108 | 170.1838 | 88.5 | 11.5 | CC(C)=CCOc1c2ccoc2cc2oc(=O)ccc12 [Isoimperatorin] | – | – | – | – | –
34 | 0.007797 | 122.898 | 63.9 | 36.1 | O=c1c(O[C@@H]2O[C@H](CO)[C@@H](O)[C@H](O)[C@H]2O)c(-c2ccc(O)c(O)c2)oc2cc(O)cc(O)c12 [Isoquercitrin] | – | – | – | – | –
35 | 0.0115 | 181.9828 | 94.6 | 5.36 | COc1ccc(-c2oc3cc(O)cc(O)c3c(=O)c2O)cc1 [Kaempferide] | – | – | – | – | –
